Reference: patent US20020183277A1, “Combination of vitamin D analogue and pyrimidine nucleoside analogue” (priority 2001, published 2002)

Columns and labels:
FHC cells = assay: growth of FHC cells; format: cell-based; conditions: normal human colon epithelial cells, 10^-7 M, 14 days
Procedure: (§1) The effect of administration of 1α, 25-dihydroxyvitamin D3 or seocalcitol (EB 1089) on growth of FHC cells was investigated. FHC cells are normal human colon epithelial cells (ATCC CRL-1831) considered to be a good model of normal human colon epithelium. The cells were grown in a culture medium supplemented with 10^−7 M 1α,25-dihydroxyvitamin D3 or seocalcitol for 14 days.

cytidine deaminase gene = conditions: HL60, WiDr, Colo 201, Colo 205, CXF 280, DLD-1, MKN 45, MKN 1, MKN 28 and A549 cells; cited from earlier work
[1] = test system: cytidine deaminase in HL60 cells; conditions: human promyeolytic cell line HL60; cited from earlier work
[2] = test system: cytidine deaminase activity in FHC cells; assay: cytidine deaminase activity in FHC cells; format: cell-based, human; conditions: continuous exposure, period of 11 days, control 0.07±0.03 nmol/min/mg
Procedure: (§2) The cytidine deaminase activity in the cell extracts was determined by measuring the conversion of radiolabelled cytidine to […] and uracil. The assay is a combination of the methods described in J. Mejer and P. Nygaard, “Cytosine Arabinoside Phosphorylation and Deamination in Acute Myeloblastic Leukemia Cells”, Leukemia Research 2, 1978 pp. 127-131, and B. R. De Saint Vincent et al., “The Modulation of Thymidine Triphosphate Pool of Chinese Hamster Cells by dCMP Deaminase and UDP Reductase”, J. Biol. Chem. 255, 1980, pp. 162-167, which are hereby incorporated by reference.
as §1
Similarly, cytidine deaminase and thymidine phosphorylase activity in FHC cells following continuous exposure to 1α,25-dihydroxyvitamin D3 or seocalcitol was determined as described in example 1. […]

[3] = test system: cytidine deaminase (CDA) activity in HT-29 cells; assay: cytidine deaminase activity in extracts of treated HT-29 cells; format: cell-based, human; conditions: 10^-7 M; for increase in cytidine deaminase activity: incubation at day 1 for 24 hours, versus isopropanol control
Procedure: (§3) HT-29 cells (a human colon cancer cell line) were grown in medium to which was added 0.0025% isopropanol as control, 10^−7 M 1α, 25-dihydroxyvitamin D3 or 10^−7 M seocalcitol, respectively. The medium was changed on days 1, 4, 6, 8, 11 and 13, each time with addition of isopropanol, 1α, 25-dihydroxyvitamin D3 or seocalcitol, as appropriate.
(§4) On each of the indicated days, cells from each culture were harvested, pelleted and frozen. For the cytidine deaminase and thymidine phosphorylase assays, the frozen cell pellet was thawed and resuspended in 150 μl of 0.1 M Tris-Hcl, pH 8.1. The cell suspension was sonicated for 2-5 seconds and centrifuged at 20000×g for 20 minutes at 4° C. 100 μl of cell extract was transferred to Eppendorf tubes containing 0.5 μl 1M DTT.
as §2
The assay mixture has a total volume of 50 μl and the following composition:
2 μl ^3H-cytidine (18.2 Ci/mmol, 1 mCi/ml)
The substrate and products were separated on PEI-cellulose plates placed in about 1.5 cm of a mixture of isopropanol:water:ethyl acetate 41:22:117.

[4] = test system: thymidine phosphorylase activity in FHC cells; assay: thymidine phosphorylase activity in FHC cells; format: cell-based, human; conditions: continuous exposure, period of 11 days, control 0.25±0.04 nmol/min/mg
Procedure: (§5) The thymidine phosphorylase activity was determined by measuring the conversion of radiolabelled thymidine to thymine. The assay method used was a slight modification of the method described in T. Sumizawa et al., “Thymidine Phosphorylase Activity Associated with Platelet-Derived Endothelial Cell Growth Factor”, J. Biochem. 114, 1993, pp. 9-14, which is hereby incorporated by reference.
as §1
Similarly, cytidine deaminase and thymidine phosphorylase activity in FHC cells following continuous exposure to 1α,25-dihydroxyvitamin D3 or seocalcitol was determined as described in example 1. The cytidine deaminase and thymidine phosphorylase activity in control cells remained constant at 0.07±0.03 and 0.25±0.04 nmol/min/mg, respectively, over a period of 11 days and was unaffected by the presence of 1α,25-dihydroxyvitamin D3 or seocalcitol.

[5] = test system: thymidine phosphorylase (TP) activity in HT-29 cells; assay: thymidine phosphorylase activity in extracts of treated HT-29 cells; format: cell-based, human; conditions: 10^-7 M; for thymidine phosphorylase activity: at day 11 (control 0.395±0.062); for thymidine phosphorylase activity compared to isopropanol-treated cells: first 5 days
Procedure: as §3, §4, §5
10 μl 50 mM sodium phosphate, pH 7.0
10 μl mM Tris-HCl, pH 7.6
2 μl ^3H-thymidine (5 Ci/mmol, 1 mCi/ml)
The substrate and product were separated on PEI-cellulose plates placed in about 1.5 cm of water.

[6] = test system: estrogen receptor-negative MDA-MB-231 tumours; conditions: in combination with doxifluridine, MDA-MB-231 tumours in athymic mice; cited from earlier work
solid tumours = conditions: clinical efficacy, limited by dose-limiting toxicity; cited from earlier work
[7] = test system: cell growth and enzymatic activity; assay: 2 hours versus continuous exposure (previous experiment); format: cell-based; conditions: 10^-7 M
[8] = after 8 days of incubation, p<0.0001

SMILES | growth of FHC cells compared to untreated control cells (FHC cells) | expression of the cytidine deaminase gene (cytidine deaminase gene) | cytidine deaminase in HL60 cells [1] | cytidine deaminase activity in FHC cells [2] | maximum increase in cytidine deaminase activity [3, 8] | increase in cytidine deaminase activity [3] | thymidine phosphorylase activity in FHC cells [4] | thymidine phosphorylase activity [5] | thymidine phosphorylase activity compared to isopropanol-treated cells [5] | effect of combination treatment versus 22-oxacalcitriol alone [6] | overall response rate (solid tumours) | increase in cytidine deaminase activity relative to that observed for 1α,25-dihydroxyvitamin D3 [3, 8] | effect on cell growth and enzymatic activity of 2 hours of exposure versus continuous exposure [7]
C=C1/C(=C\C=C2/CCC[C@]3(C)[C@@H]([C@H](C)CCCC(C)(C)O)CC[C@@H]23)C[C@@H](O)C[C@@H]1O [1α,25-dihydroxyvitamin D3] | not significantly affected | upregulates | causes an increase | unaffected | 15.5 fold | 4.5 fold | unaffected | 0.323 nmol/min/mg | the same as in isopropanol-treated cells | – | – | – | –
C=C1/C(=C\C=C2/CCC[C@]3(C)[C@@H]([C@H](C)OCCC(C)(C)O)CC[C@@H]23)C[C@@H](O)C[C@@H]1O [22-oxacalcitriol] | – | – | – | – | – | – | – | – | – | did not exceed that of treatment with 22-oxacalcitriol alone | – | – | –
O=c1[nH]cc(F)c(=O)[nH]1 [5-FU, 5-fluorouracil] | – | – | – | – | – | – | – | – | – | – | 10-30% | – | –
C=C1/C(=C\C=C2/CCC[C@]3(C)[C@@H]([C@H](C)/C=C/C=C/C(O)(CC)CC)CC[C@@H]23)C[C@@H](O)C[C@@H]1O [seocalcitol] | not significantly affected | – | – | unaffected | – | 4.9 fold | unaffected | 0.672 nmol/min/mg | the same as in isopropanol-treated cells | – | – | twice | equivalent effect
